Consider three molecules from patent US7153844B2, “Estrogen-linked platinum (II) complexes as anticancer agents” (priority 2002, dated 2006).

Holding throughout (format): cell-based, human
One experiment relates to MCF-7. As to the kind of experiment: Cell proliferation with the SRB assay. The conditions noted are these: read-out: IC50 (Inhibitory concentration 50%), MCF-7 (ER+) breast carcinoma. From the text:
(§1) Cell Proliferation with the SRB Assay (Breast Cancer Cell Lines)
(§2) Two human breast tumor cell lines were used to evaluate the antitumor activities of the new estrogen-linked platinum (II) complexes. […] Cell proliferation was done with the sulforhodamine B (SRB) assay as described by Alley, M. C. et al. (Cancer Research. no 48, 589–601 (1988)) and Boyd, M. R. & Paull, K. D. (Drug Development Research. 34, 91–109, (1995)).

For a further experiment, the system named is MDA-MB-231. As to the kind of experiment: Cell proliferation with the SRB assay. The following applies: read-out: IC50 (Inhibitory concentration 50%), MDA-MB-231 (ER−) breast carcinoma.
Text: as §1, §2

In a further experiment the test system is KLE. As to the kind of experiment: Cell proliferation with the MTT assay. The following applies: read-out: IC50 (Inhibitory concentration 50%), uterus, ER−, NR = IC50 not reach at the concentrations tested. From the text: (§3) Cell Proliferation with the MTT Assay (Uterine, Ovarian and Breast Cancer Cell Lines)
(§4) Several human uterine, ovarian and breast cancer cell lines were used to evaluate the antitumor activities of the new estrogen-linked platinum (II) complexes. The cytotoxicity of the platinum (II) complexes was done along with cisplatin as the control on both ER+ and ER— human uterine, ovarian and breast carcinomas. Cell proliferation was done with the MTT assay as described by J. Carmichael et al. (Cancer Res. 47, 943–946 (1987) see also C. H. J. Ford et al., Cancer Chemother. Pharmacol. 24, 295–301 (1986)). The MTT assay is based on the ability of viable cells to reduce a soluble colorless tetrazolium salt, 3-(4,5-dimethylthiazol-2-yl)-2,5-diphenyltetrazolium bromide (MTT), into an insoluble blue formazan derivative.

The test system of a further experiment is HEC-1A. As to the kind of experiment: Cell proliferation with the MTT assay. The following applies: read-out: IC50 (Inhibitory concentration 50%), uterus, ER−, NR = IC50 not reach at the concentrations tested.
Text: as §3, §4

Another experiment relates to RL-95-2. As to the kind of experiment: Cell proliferation with the MTT assay. The following applies: read-out: IC50 (Inhibitory concentration 50%), RL-95-2, uterus, ER+, NR = IC50 not reach at the concentrations tested.
Text: as §3, §4

The subject of the next experiment is Ishikawa. Briefly: Cell proliferation with the MTT assay. The conditions noted are these: read-out: IC50 (Inhibitory concentration 50%), uterus, ER+, NR = IC50 not reach at the concentrations tested.
Text: as §3, §4

As to `N.N.[Cl][Pt][Cl]` [Cisplatin, cis-diamminedichloroplatinum (II), reference compound], the IC50 in the experiment with MCF-7 stood at 16.1 µM; with MDA-MB-231, 12.8 µM; in the experiment with KLE, 24.3 ± 6.3 µM; with HEC-1A it was 20.8 ± 4.7 µM; with RL-95-2, 14.1 ± 0.5 µM; in the experiment on Ishikawa, 3.7 ± 0.9 µM.
Consider `C[C@]12CC[C@@H]3c4ccc(O)cc4CC[C@H]3[C@@H]1C[C@H](CCCCCCCCCCCNCc1ccccn1)[C@@H]2O.[Cl][Pt][Cl]` [derivative 12 (∘ = 1), 16β-[11′-(2″-picolylamino)undecanyl]-1,3,5(10)-estratrien-3,17β-diol dichloroplatinate (II)], for which the IC50 in the experiment with MCF-7 turned out to be 5.9 µM; in the experiment with MDA-MB-231 it was 4.1 µM; in the experiment on KLE, 6 µM; with HEC-1A, 13 µM; with RL-95-2, 7 µM; with Ishikawa it was 28 µM.
For the molecule `C[C@]12CCC3c4ccc(O)cc4CCC3C1C[C@H](CCCCCCCCCCCNCCc1ccccn1)[C@@H]2O.[Cl][Pt][Cl]` (stereo partly drawn) [derivative 12 (∘ = 2), 16β-[11′-(2″-pyridylethylamino)undecanyl]-1,3,5(10)-estratrien-3,17β-diol dichloroplatinate (II)], the IC50 was under 0.78 µM with MCF-7; under 0.78 µM in the experiment on MDA-MB-231; 1.75 µM in the experiment on KLE; 3.75 µM in the experiment on HEC-1A; 1 µM in the experiment on RL-95-2; 0.25 µM in the experiment with Ishikawa.
